# Results taken from patent US20180111991A1, “MODULATORS OF ACTIVIN AND METHODS FOR MODULATING IMMUNE RESPONSES AND T FOLLICULAR HELPER CELLS” (LA JOLLA INSTITUTE FOR ALLERGY AND IMMUNOLOGY, priority 2014, published 2018).
# “Also recorded” adds a separate entry of the source.
# How the values were obtained:
# [1] = test system: human naïve CD4 T cells; test: Screening of secretomics recombinant proteins for Tfh marker induction; assay type: cell-based; settings: secretomics protein screen, anti-CD3/CD28 beads, 5 days, automated FACS
# Description: FIG. 1A-D: Inhibin beta A (INHBA) emerged from the screen as potent regulator of human Tfh differentiation. (A) Schematic of primary screen. Purified human naïve CD4 T cells from a leukapheresis donor were stimulated by anti-CD3/CD28 beads on 384 well plates on day 0. The GNF secretomics recombinant proteins were added at the beginning of the stimulation. Each secretomics protein was tested in duplicate. After 5 days of in vitro culture, cells were evaluated by automated FACS analysis for the expression of Tfh signature markers, including CXCR5 and PD-1. (B) Primary screen results. Relative enrichment of PD-1^+CXCR5^+ cell induction is reported as Z score for each recombinant protein. INHBA gene product is shown in red. (C) CXCR5 and PD-1 expression from repeat experiment in which INHBA gene product was tested again for its capacity to induce Tfh-like differentiation. (D) Confocal microscopy of INHBA expression in human tonsils. Tonsil sections were stained with anti-INHBA (red) anti-BCL6 (blue) and anti-CD3 (green) Abs. An overlay from one donor representative of six is shown on the left panel. […]
# Naïve CD4^+ T cells were isolated from leukapheresis-derived mononuclear cells via CliniMACS negative selection (Miltenyi Biotec). […] Induction of CXCR5 and PD-1 was assessed after 5 days of in vitro culture using automated FACS acquisition via HTS on LSR Fortessa (BD Biosciences). For each 384 well plate, mean and standard deviation of PD-1^+CXCR5^+ cell frequency induced by each individual recombinant proteins was determined and used to calculate the Z score. Z scores of replicate plates were analyzed independently.
# To discover novel regulators of human Tfh cell differentiation, we performed an unbiased high throughput screen of a human extracellular proteome library consisting of over 2000 human proteins predicted or known to be cytokines, chemokines, morphogens, costimulatory receptors, or single pass transmembrane molecules^19. […] Following 5 days, expression of the Tfh signature markers CXCR5 and PD-1 were measured on the cells by flow cytometry, in an automated fashion. […]
# [2] = test system: human naïve CD4 T cells; test: CCR7 expression by FACS on in vitro differentiated cells; assay type: cell-based; settings: for CCR7 downregulation (CCR7+CXCR5+ cells): with or without IL-12 (FIG. 10); for CCR7 expression (MFI): activated CD4 T cells, day 5
# Description: For surface staining, primary-staining panels used for phenotypic analysis or for cell sorting known in the art were used. For the intranuclear staining: cells were treated with the FoxP3 Fixation/Permeabilization kit (eBioscience) and stained in Permeabilization buffer (eBioscience). For cytokine staining: day 3 or day 5 in vitro differentiated cells (specified in the main text or in figure legends) cells were stimulated for 5 hours at 37° C. with Phorbol 12-myristate 13-acetate (PMA, 25 ng/ml) and Ionomycin (1 μg/ml) in the presence of Brefeldin A (5 μg/ml). Cells were fixed with PBS 2% FBS, 1% PFA and permeabilized with PBS 2% FBS, 0.5% Saponin (from quillaja bark, Sigma-Aldrich). Samples were analyzed on a LSR Fortessa Cell Analyzer (BD, Bioscience). Flow cytometry data were analyzed with FlowJo (Tree Star). For cell sorting, cells were sorted using sorted using a FACS Aria (BD, Bioscience).
# Unless differently specified, naïve CD4^+ T cells were enriched from PBMCs by magnetic bead negative selection with the Naïve CD4^+ T Cell Isolation Kit (Stem Cell Technologies). Purity (CD4^+CD45RA^+) was 90% or higher. Cells (7.5×10^4 cells/well) were activated by Dynabeads Human T-Activator CD3/CD28 (2 μl/well, Life Technologies) and cultured with recombinant human/mouse/rat activin A (50 ng/ml or 100 ng/ml), recombinant human IL-12 (5 ng/ml), recombinant human TGFβ (1 ng/ml), recombinant human IL-23 (10 ng/ml) or recombinant human IL-35 (10 ng/ml) in the presence of and recombinant human IL-7 (4 ng/ml) in AIM-V medium (Life Technologies). All cytokines were from R&D System and Peprotech. The 14 kDa mature human beta A chain of human activin A shares 100% amino acid sequence identity with bovine, feline, mouse, porcine, and rat beta A. Phenotype was quantified after 3 or 5 days, as specified in the main text of Figure legends. Similar results were obtained when using Treg-depleted FACS sorted naïve CD4 T cells, in which cells were sorted from total PBMCs by flow cytometry as CD19^−CD8^−CD14^−CD16^− CD4^+CD45RO^−CD25^− cells. For experiments quantifying supernatant CXCL13 concentration, cells were activated by plate-bound anti-human CD3 (5 μg/ml, BD) and ICOS-L (5 μg/ml, recombinant human B7-H2, R&D). CXCL13 concentrations were determined via human CXCL13 DuoSet ELISA (R&D) on supernatants harvested after 5 days of in vitro culture. For blocking experiments, cells were cultured with anti-activin A blocking mAb (5 μg/ml, clone 69403, R&D), anti-TGFβ mAb (100 μg/ml, clone 1D11.16.8, BioXcell), or equivalent concentration of mouse IgG1 isotype mAb (BioXcell). For blockade of IL-2, cells were cultured with anti-IL-2 blocking mAb (10 μg/ml, clone 5334, R&D) or mouse IgG1 isotype mAb (BioXcell).
Substance,induction of CXCR5 and PD-1 expression (PD-1+CXCR5+ cells) [1],CCR7 downregulation (CCR7+CXCR5+ cells) [2],CCR7 expression (MFI) [2],CCR7 expression (MFI) ([2]; listed as Activin A)
TGFβ,regulator T cell differentiation,influence CCR7 downregulation,,
"activin A: commercial recombinant cytokine, homodimer of the INHBA gene product (inhibin beta A)",potent regulator of the human Tfh gene program; also recorded: top hit in the screen,influence CCR7 downregulation,decreased CCR7 expression,sufficient to decrease CCR7 expression
